# Tests used:
# [1] = tested on: control strain SME3359 (lacZ reporter under synthetic promoter repressed by LacI); assay: Control strain dose-response assay; format: cell-based, E. coli; conditions: for Control strain IC50: E. coli strain SME3359, 1 mM IPTG, 3 hours at 37°C, 6.2% DMSO; for IC50: Escherichia coli, 3 h, read-out: Control strain IC50
# [2] = molecular target: T1, VirF (Shigella flexneri, UniProt P0A2T1); assay: cell-based; format: cell-based; conditions: for VirF IC50: E. coli strain SME4382, virB-lacZ fusion, 1 mM IPTG, 3 hours at 37°C, 6.2% DMSO
# [3] = Stability towards thiol nucleophile glutathione; format: physicochemical; conditions: 10 µM in PBS pH 7.4 (1% DMSO), 50 µM GSH, room temperature, up to 48 hours
# [4] = tested on: E. coli strains SME4382 and SME3359; assay: E. coli growth experiments; format: cell-based; conditions: VirF and control strains, TY broth, 44 µM compound, 6.2% DMSO, 37°C
# [5] = Aqueous stability in PBS pH 7.4 by RP HPLC/UV/HRMS; format: physicochemical; conditions: 10 µM in PBS pH 7.4 (1% DMSO), room temperature; by the 0th time point, about 30 minutes elapsed
# [6] = tested on: VirF-dependent virulence genes (icsS, icsB, ipaB, virB); conditions: virB in S. flexneri; cited from earlier work
# [7] = molecular target: T1, VirF; conditions: cell-based reporter gene assays with S. flexneri and E. coli; cited from earlier work
# [8] = molecular target: T1, VirF; conditions: purified VirF, in vitro; cited from earlier work
# T1 sequence (P0A2T1 whole entry, the tested form may be a part): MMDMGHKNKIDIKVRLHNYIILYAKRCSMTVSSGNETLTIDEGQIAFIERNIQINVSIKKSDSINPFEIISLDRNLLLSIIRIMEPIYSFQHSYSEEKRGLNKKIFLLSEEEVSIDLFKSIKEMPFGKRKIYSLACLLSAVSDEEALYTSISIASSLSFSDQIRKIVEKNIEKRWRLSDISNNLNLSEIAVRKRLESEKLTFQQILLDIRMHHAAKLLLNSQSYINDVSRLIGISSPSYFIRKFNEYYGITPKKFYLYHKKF
Compound,Control strain IC50 [1],VirF IC50 [2],further results
"1‧-propyl-[2,3‧-biquinolin]-1‧-ium bromide [Entry 20]",not inhibiting the control strain,,
"1‧-hexyl-[2,3‧-biquinolin]-1‧-ium bromide [Entry 21]",not inhibiting the control strain,,
"CCCCCCCCC[n+]1ccccc1.[Br-] [Entry 17, 1-nonylpyridin-1-ium bromide]","good to modest, non-specific activity","good to modest, non-specific activity",IC50 [1]: > 50 µM; IC50 [2]: > 50 µM
"Clc1ccc(C[n+]2cc(-c3ccc4ccccc4n3)cc3ccccc32)cc1.[Br-] [Entry 3, 1‧-(4-chlorobenzyl)-[2,3‧-biquinolin]-1‧-ium bromide]",,,GSH adduct formation [3]: no GSH adducts were observed
"CCCCN1C=C(c2cccc(C)n2)C(C[N+](=O)[O-])c2ccccc21 (centres unmarked) [Entry 6, 1-butyl-3-(6-methylpyridin-2-yl)-4-(nitromethyl)-1,4-dihydroquinoline]",,,Effect on bacterial growth [4]: inhibited the growth of the bacteria; IC50 [1]: > 100 µM; IC50 [2]: > 100 µM
"CCCCCCCCC[N+](CC)(CC)CC.[Br-] [Entry 18, N,N,N-triethylnonan-1-aminium bromide]",no inhibitory activity,no inhibitory activity,
"CCCCN1C=C(c2ccc3ccccc3n2)C(C[N+](=O)[O-])c2ccccc21 (centres unmarked) [SE-1, 1‧-Butyl-4‧-(nitromethyl)-1‧,4’-dihydro-2,3‧-biquinoline]",,,Aqueous stability (degradation to the corresponding quaternary salt) [5]: degraded completely; Expression of VirF-dependent virulence genes (mRNA) [6]: reduced the expression; Inhibition of transcription activation by VirF [7]: inhibitor; Inhibition of DNA binding by VirF [8]: inhibitor
"CCCCN1C=C(c2cccc(Cl)c2)C(C[N+](=O)[O-])c2ccccc21 (centres unmarked) [Entry 7, 1-butyl-3-(3-chlorophenyl)-4-(nitromethyl)-1,4-dihydroquinoline]",,,IC50 [1]: > 100 µM
"CCCCn1c2ccccc2c(=O)c2ccccc21 [Entry 15, 10-butylacridin-9(10H)-one]",no inhibitory activity,no inhibitory activity,
"CCCC[n+]1cc(-c2ccc3ccccc3c2)cc2ccccc21 [Entry 23, 1-butyl-3-(naphthalen-2-yl)quinolin-1-ium bromide]",,,IC50 [1]: > 100 µM; IC50 [2]: 9 µM
"CCCCN1c2ccccc2C=C(c2ccc3ccccc3n2)C1C (centres unmarked) [Entry 10, 1‧-butyl-2‧-methyl-1‧,2‧-dihydro-2,3‧-biquinoline]",No inhibition,No inhibition,
"CCCCN1C=C(c2ccc3ccccc3n2)C(c2ccccc2)c2ccccc21 (centres unmarked) [Entry 8, 1‧-butyl-4‧-phenyl-1‧,4‧-dihydro-2,3‧-biquinoline]",No inhibition,No inhibition,
"CC(C)[n+]1cc(-c2ccc3ccccc3n2)cc2ccccc21.[I-] [Entry 19, 1‧-isopropyl-[2,3‧-biquinolin]-1‧-ium iodide]",not inhibiting the control strain,,
"C=CCCC[n+]1cc(-c2ccc3ccccc3n2)cc2ccccc21.[Br-] [Entry 24, 1‧-(pent-4-en-1-yl)-[2,3‧-biquinolin]-1’-ium bromide]",not inhibiting the control strain,,
"CCCCn1cc(-c2ccc3ccccc3n2)c2ccccc21 [Entry 12, 2-(1-butyl-1 H-indol-3-yl)quinoline]",no inhibitory activity,no inhibitory activity,

# — paper PMC4170738 (RSC advances, 2014)
